The text below walks through data of ChEMBL document CHEMBL1130791, “Novel HIV-protease inhibitors containing beta-hydroxyether and -thioether dipeptide isostere surrogates: modification of the P3 ligand” (Bioorg Med Chem Lett, 1998).

What is called IC50 is the concentration needed to halve the response being measured. A lower IC50 goes with higher potency. As usually defined, the inhibition is how much of the control response was suppressed.

The source made the active and inactive calls. No cut-off for these calls is given here.

The target in experiment [1] is T1, Human immunodeficiency virus type 1 protease (Human immunodeficiency virus 1, UniProt Q72874). Briefly: Inhibitory activity against HIV-1 protease using scintillation proximity assay (SPA assay).
Experiment [2] addresses Human immunodeficiency virus type 1 protease (Human immunodeficiency virus 1) (UniProt Q72874). In words: Antiviral activity against the HTLV-III strain of HIV-1 in CEM cell lines. Conditions: CCRF-CEM. The format is functional, cell-based.
A further experiment relates to CCRF-CEM. In words: Compound was evaluated for antiviral activity against the HTLV-III strain of HIV-1 in CEM cell lines; NA means not active. The class given is functional, cell-based. Conditions: Homo sapiens.
In experiment [3] the target is Human immunodeficiency virus type 1 protease (Human immunodeficiency virus 1) (UniProt Q72874). In words: Inhibitory activity against HIV-1 protease using scintillation proximity assay (SPA assay) at a concentration of 500 nM. (In a scintillation proximity assay essentially only radioactivity close to the scintillant gives light.)
Experiment [4] has as its target T1, Human immunodeficiency virus type 1 protease. In words: Inhibitory activity against HIV-1 protease using scintillation proximity assay (SPA assay); NA means not active.

In turn, `CC(C)(C)NC(=O)c1c(OC[C@@H](O)[C@H](Cc2ccccc2)NC(=O)[C@H](CC(N)=O)NC(=O)c2ccc3c(c2)S(=O)(=O)c2ccccc2C3=O)ccc2ccccc12` had a half-maximal inhibitory concentration (IC50) in experiment [1] of 60 nM. This molecule had an ID50 in experiment [2] of 100 nM.

In the case of `CC(C)(C)NC(=O)c1ccccc1OC[C@@H](O)[C@H](Cc1ccccc1)NC(=O)[C@H](CC(N)=O)NS(=O)(=O)c1ccc2ccccc2c1`, the ID50 result with CCRF-CEM is “inactive”. The molecule also had an inhibition in experiment [3] of 42%.

With `CC(C)(C)NC(=O)c1ccccc1SC[C@H](O)[C@H](Cc1ccccc1)NC(=O)[C@H](CC(N)=O)NC(=O)c1ccc2ccccc2c1`, the IC50 in experiment [1] came out at 390 nM. In experiment [2], this molecule showed an ID50 of 13400 nM.

Molecule `CC(C)(C)NC(=O)c1c(OC[C@@H](O)[C@H](Cc2ccccc2)NC(=O)[C@H](CC(N)=O)NC(=O)c2ccc3c(c2)C(=O)c2ccccc2C3=O)ccc2ccccc12` showed an IC50 in experiment [1] of 62 nM. The ID50 in experiment [2] was found to be 160 nM.

In experiment [1], `CC(C)(C)NC(=O)c1ccccc1OC[C@@H](O)[C@H](Cc1ccccc1)NC(=O)[C@H](CC(N)=O)NC(=O)c1cnnc2ccccc12` yielded an IC50 of 130 nM. In experiment [2], this molecule gave an ID50 of 9300 nM.

The molecule `CC(C)(C)NC(=O)c1ccccc1NC[C@@H](O)[C@H](Cc1ccccc1)NC(=O)[C@H](CC(N)=O)NC(=O)c1ccc2ccccc2n1` registered a half-inhibitory concentration (IC50) in experiment [1] of 94 nM.

The molecule `CC(C)(C)NC(=O)c1ccccc1OC[C@@H](O)[C@H](Cc1ccccc1)NC(=O)[C@H](CC(N)=O)NC(=O)c1ccc2ccccc2n1` had an IC50 in experiment [1] of 45 nM.

Consider `CC(C)(C)NC(=O)c1ccccc1SC[C@H](O)[C@H](Cc1ccccc1)NC(=O)[C@H](CC(N)=O)NC(=O)c1ccccn1`, for which the concentration for half-maximal inhibition (IC50) result in experiment [4] is given as “Not Active”.

As for `CC(C)(C)NC(=O)c1ccccc1OC[C@@H](O)[C@H](Cc1ccccc1)NC(=O)[C@H](CC(N)=O)NC(=O)c1cnc2ccccc2n1`, the half-maximal inhibitory concentration (IC50) in experiment [1] was found to be 63 nM. In experiment [2], this molecule returned an ID50 of 630 nM.

With `CC(C)(C)NC(=O)c1ccccc1OC[C@H](O)[C@H](Cc1ccccc1)NC(=O)[C@H](CC(N)=O)NC(=O)c1cnc2ccccc2n1`, the IC50 in experiment [1] was determined as 100 nM. Moreover, the ID50 in experiment [2] was 610 nM.

Turning to `CC(C)(C)NC(=O)c1ccccc1OC[C@H](O)[C@H](Cc1ccccc1)NC(=O)[C@H](CC(N)=O)NC(=O)c1cc(O)c2ccccc2n1`, half-maximal inhibition in experiment [1] (IC50) was put at 410 nM. This molecule also had an ID50 in experiment [2] of 11200 nM.

`CC(C)(C)NC(=O)c1ccccc1OC[C@H](O)[C@H](Cc1ccccc1)NC(=O)[C@H](CC(N)=O)NC(=O)c1cnnc2ccccc12` gave an IC50 in experiment [1] of 500 nM. The molecule also yielded an ID50 in experiment [2] of 13400 nM.

In experiment [1], `CC(C)(C)NC(=O)c1ccccc1OC[C@H](O)[C@H](Cc1ccccc1)NC(=O)[C@H](CC(N)=O)NC(=O)c1ccc2c(c1)C(=O)c1ccccc1C2=O` gave an IC50 of 90 nM. This molecule yielded an ID50 in experiment [2] of 2300 nM.

For the molecule `CC(C)(C)NC(=O)c1ccccc1SC[C@@H](O)[C@H](Cc1ccccc1)NC(=O)[C@H](CC(N)=O)NC(=O)c1ccc2ccccc2n1`, inhibition in experiment [1] was half-maximal at 90 nM (IC50).

In experiment [3], `CC(C)(C)NC(=O)c1ccccc1OC[C@H](O)[C@H](Cc1ccccc1)NC(=O)[C@H](CC(N)=O)NC(=O)c1nc2ccccc2nc1O` yielded an inhibition of 35%. The ID50 in experiment [2] was 10600 nM.

In experiment [1], `CC(C)(C)NC(=O)c1ccccc1OC[C@@H](O)[C@H](Cc1ccccc1)NC(=O)[C@H](CC(N)=O)NC(=O)c1ccc2c(c1)S(=O)(=O)c1ccccc1C2=O` showed an IC50 of 44 nM. In addition, in experiment [2], the ID50 was found to be 550 nM.

As for `CC(C)(C)NC(=O)c1ccccc1OC[C@@H](O)[C@H](Cc1ccccc1)NC(=O)[C@H](CC(N)=O)NC(=O)c1nc2ccccc2nc1O`, the ID50 entry in the experiment with CCRF-CEM is “inactive”. In experiment [3], this molecule yielded an inhibition of 36%.

With `CC(C)(C)NC(=O)c1ccccc1OC[C@H](O)[C@H](Cc1ccccc1)NC(=O)[C@H](CC(N)=O)NS(=O)(=O)c1ccc2ccccc2c1`, the ID50 entry in the experiment on CCRF-CEM was “inactive”.

`CC(C)(C)NC(=O)c1ccccc1OC[C@@H](O)[C@H](Cc1ccccc1)NC(=O)[C@H](CC(N)=O)NC(=O)c1ccc2c(c1)C(=O)c1ccccc1C2=O` displayed an IC50 in experiment [1] of 41 nM. In experiment [2], this molecule registered an ID50 of 330 nM.
